In patent US10188718B2, “Vaccines against Streptococcus pneumoniae serotype 4” (MAX-PLANCK-GESELLSCHAFT ZUR FÖRDERUNG DER WISSENSCHAFTEN …, priority 2014, dated 2019):
Entries after “also recorded” stand apart in the source; their conditions may differ.

Tested on: human reference serum 007sp
Experiment: Glycan array, antibody binding from human reference serum 007sp with CPS/CWPS competition
Conditions: glycan array competition experiment, serum 007sp (FIG. 5, FIG. 6), 24* compared with 16*
Protocol: Pyruvated SP4 tetrasaccharide 24* was dissolved at 10 mM in water and diluted to 100 μM and 50 μM in coupling buffer (50 mM sodium phosphate, pH 8.5). Each concentration was spotted in duplicates to CodeLink activated glass slides (Surmodics) alongside a number of related structures and native polysaccharides (see FIG. 4 for printing pattern) using a Scienion S3 microarray printer at 65% relative humidity. The slides were incubated in a humidity saturated chamber overnight. They were washed twice with water and quenched by incubation with 100 mM ethanolamine, 50 mM sodium phosphate pH 9 for one hour at room temperature. They were washed again twice, dried by centrifugation and stored at 4° C. until use.
Slides were blocked by incubation with 1% BSA-PBS at room temperature, washed twice with PBS and dried by centrifugation. A 64 well incubation gasket was attached to the glass slides.
Sera (rabbit SP4 typing serum (SSI Diagnostica, Denmark) or human reference serum 007sp (Clin. Vaccine Immunol. 2011 18 (10), 1728)) were diluted in 1% BSA-PBS containing no competitors or native SP4 CPS (capsular polysaccharide) or CWPS (S. pneumoniae cell wall polysaccharide) as competitors. […] It was dried by centrifugation and the fluorescence was read out using s GenePix 4300a fluorescence reader.

CC(=O)N[C@@H]1[C@H](O[C@@H]2[C@H](O)[C@H](C)O[C@@H](O[C@H]3[C@@H](O)[C@@H](CO)O[C@H](O[C@@H]4[C@H](O)[C@@H](O)[C@@H](OCCCCCN)O[C@@H]4CO)[C@@H]3NC(C)=O)[C@H]2NC(C)=O)O[C@H](CO)[C@@H](O)[C@@H]1O [compound 16*, N-((2R,3S,4R,5S,6R)-2-(((2S,3S,4S,5R,6S)-3-acetamido-2-(((2R,3R,4R,5R,6R)-3-acetamido-2-(((2R,3R,4R,5R,6S)-6-((5-aminopentyl)oxy)-4,5-dihydroxy-2-(hydroxymethyl)tetrahydro-2H-pyran-3-yl)oxy)-5-hydroxy-6-(hydroxymethyl)tetrahydro-2H-pyran-4-yl)oxy)-5-hydroxy-6-methyltetrahydro-2H-pyran-4-yl)oxy)-4,5-dihydroxy-6-(hydroxymethyl)tetrahydro-2H-pyran-3-yl)acetamide]
inhibition (decline) of signal by native S. pneumoniae serotype 4 CPS: Compared to unpyruvated tetrasaccharide 16*, the signal for the pyruvated saccharide 24* can be inhibited far more efficiently; also recorded: much stronger for pyruvated tetrasaccharide 24* (spot B) compared with unpyruvated tetrasaccharide 16*
